In the NIST ThermoML archive (doi:10.1016/j.jct.2017.01.016):

Experiment: xn = mol fraction of the nth substance listed
Details: 101 kPa, Liquid; for viscosity: Capillary tube (Ostwald / Ubbelohde) method; for speed of sound: Frequency=3 MHz, Linear variable-path acoustic interferometer

Cc1ccccc1C [1,2-dimethylbenzene] + C1COCCO1
Details | speed of sound [m/s] | viscosity [mPa·s]
293.15 K, x2 = 0 | 1367.7 | 0.8066
293.15 K, x2 = 0.0672 | 1361.7 | 0.8314
293.15 K, x2 = 0.1391 | 1355.5 | 0.8598
293.15 K, x2 = 0.2103 | 1350 | 0.8896
293.15 K, x2 = 0.2853 | 1345.3 | 0.9224
293.15 K, x2 = 0.3543 | 1341.7 | 0.9541
293.15 K, x2 = 0.4293 | 1338.8 | 0.9899
293.15 K, x2 = 0.5092 | 1336.9 | 1.03
293.15 K, x2 = 0.581 | 1336.5 | 1.067
293.15 K, x2 = 0.6518 | 1337.4 | 1.104
293.15 K, x2 = 0.7248 | 1339.8 | 1.144
293.15 K, x2 = 0.7888 | 1343.5 | 1.18
293.15 K, x2 = 0.8595 | 1349.3 | 1.221
293.15 K, x2 = 0.9298 | 1357.1 | 1.263
298.15 K, x2 = 0 | 1347.5 | 0.7576
298.15 K, x2 = 0.0672 | 1341.5 | 0.7791
298.15 K, x2 = 0.1391 | 1335.1 | 0.8033
298.15 K, x2 = 0.2103 | 1329.6 | 0.829
298.15 K, x2 = 0.2853 | 1324.8 | 0.8576
298.15 K, x2 = 0.3543 | 1321 | 0.8851
298.15 K, x2 = 0.4293 | 1317.9 | 0.9162
298.15 K, x2 = 0.5092 | 1315.9 | 0.9509
298.15 K, x2 = 0.581 | 1315.4 | 0.9833
298.15 K, x2 = 0.6518 | 1316.2 | 1.016
298.15 K, x2 = 0.7248 | 1318.3 | 1.052
298.15 K, x2 = 0.7888 | 1321.9 | 1.083
298.15 K, x2 = 0.8595 | 1327.4 | 1.12
298.15 K, x2 = 0.9298 | 1334.9 | 1.157
303.15 K, x2 = 0 | 1329.4 | 0.7132
303.15 K, x2 = 0.0672 | 1323 | 0.7321
303.15 K, x2 = 0.1391 | 1316.5 | 0.7527
303.15 K, x2 = 0.2103 | 1311 | 0.7747
303.15 K, x2 = 0.2853 | 1306 | 0.7992
303.15 K, x2 = 0.3543 | 1302 | 0.823
303.15 K, x2 = 0.4293 | 1298.6 | 0.8502
303.15 K, x2 = 0.5092 | 1296.3 | 0.8806
303.15 K, x2 = 0.581 | 1295.5 | 0.909
303.15 K, x2 = 0.6518 | 1296 | 0.9382
303.15 K, x2 = 0.7248 | 1298 | 0.9693
303.15 K, x2 = 0.7888 | 1301.3 | 0.9977
303.15 K, x2 = 0.8595 | 1306.5 | 1.03
303.15 K, x2 = 0.9298 | 1313.7 | 1.063
308.15 K, x2 = 0 | 1313.3 | 0.669
308.15 K, x2 = 0.0672 | 1306.3 | 0.6862
308.15 K, x2 = 0.1391 | 1299.9 | 0.7045
308.15 K, x2 = 0.2103 | 1293.9 | 0.724
308.15 K, x2 = 0.2853 | 1288.5 | 0.746
308.15 K, x2 = 0.3543 | 1284.3 | 0.7675
308.15 K, x2 = 0.4293 | 1280.4 | 0.792
308.15 K, x2 = 0.5092 | 1277.8 | 0.8194
308.15 K, x2 = 0.581 | 1276.7 | 0.8452
308.15 K, x2 = 0.6518 | 1276.8 | 0.8715
308.15 K, x2 = 0.7248 | 1278.4 | 0.8997
308.15 K, x2 = 0.7888 | 1281.2 | 0.9256
308.15 K, x2 = 0.8595 | 1285.9 | 0.9546
308.15 K, x2 = 0.9298 | 1292.5 | 0.9846
313.15 K, x2 = 0 | 1298.5 | 0.6315
313.15 K, x2 = 0.0672 | 1291 | 0.647
313.15 K, x2 = 0.1391 | 1284 | 0.6637
313.15 K, x2 = 0.2103 | 1277.8 | 0.6813
313.15 K, x2 = 0.2853 | 1272.1 | 0.7012
313.15 K, x2 = 0.3543 | 1267.6 | 0.7205
313.15 K, x2 = 0.4293 | 1263.5 | 0.7428
313.15 K, x2 = 0.5092 | 1260.5 | 0.7677
313.15 K, x2 = 0.581 | 1259 | 0.7912
313.15 K, x2 = 0.6518 | 1258.6 | 0.8152
313.15 K, x2 = 0.7248 | 1259.6 | 0.8408
313.15 K, x2 = 0.7888 | 1262 | 0.8642
313.15 K, x2 = 0.8595 | 1266 | 0.8906
313.15 K, x2 = 0.9298 | 1271.8 | 0.9176
318.15 K, x2 = 0 | 1285.2 | 0.5972
318.15 K, x2 = 0.0672 | 1277.2 | 0.6114
318.15 K, x2 = 0.1391 | 1269.7 | 0.6267
318.15 K, x2 = 0.2103 | 1263 | 0.6427
318.15 K, x2 = 0.2853 | 1256.9 | 0.661
318.15 K, x2 = 0.3543 | 1252.1 | 0.6786
318.15 K, x2 = 0.4293 | 1247.7 | 0.699
318.15 K, x2 = 0.5092 | 1244.1 | 0.7218
318.15 K, x2 = 0.581 | 1242.1 | 0.743
318.15 K, x2 = 0.6518 | 1241.3 | 0.7649
318.15 K, x2 = 0.7248 | 1241.7 | 0.7884
318.15 K, x2 = 0.7888 | 1243.4 | 0.8098
318.15 K, x2 = 0.8595 | 1246.6 | 0.834
318.15 K, x2 = 0.9298 | 1251.6 | 0.859

Cc1cc(C)cc(C)c1 [1,3,5-trimethylbenzene] + C1COCCO1
Details | speed of sound [m/s] | viscosity [mPa·s]
293.15 K, x2 = 0 | 1360.4 | 0.7056
293.15 K, x2 = 0.0696 | 1354.2 | 0.7332
293.15 K, x2 = 0.1408 | 1348.2 | 0.7648
293.15 K, x2 = 0.2098 | 1342.8 | 0.7974
293.15 K, x2 = 0.28 | 1337.8 | 0.8326
293.15 K, x2 = 0.3558 | 1333.1 | 0.8728
293.15 K, x2 = 0.4276 | 1329.3 | 0.9131
293.15 K, x2 = 0.5066 | 1326.5 | 0.9597
293.15 K, x2 = 0.5801 | 1325 | 1.005
293.15 K, x2 = 0.6548 | 1325.4 | 1.054
293.15 K, x2 = 0.7227 | 1327.5 | 1.099
293.15 K, x2 = 0.7936 | 1332 | 1.149
293.15 K, x2 = 0.8663 | 1340 | 1.202
293.15 K, x2 = 0.9319 | 1351 | 1.252
298.15 K, x2 = 0 | 1339.8 | 0.6592
298.15 K, x2 = 0.0696 | 1333.4 | 0.6835
298.15 K, x2 = 0.1408 | 1327.5 | 0.7112
298.15 K, x2 = 0.2098 | 1322.1 | 0.7398
298.15 K, x2 = 0.28 | 1317.1 | 0.7712
298.15 K, x2 = 0.3558 | 1312.5 | 0.8066
298.15 K, x2 = 0.4276 | 1308.9 | 0.8422
298.15 K, x2 = 0.5066 | 1306 | 0.8838
298.15 K, x2 = 0.5801 | 1304.5 | 0.9244
298.15 K, x2 = 0.6548 | 1304.7 | 0.9678
298.15 K, x2 = 0.7227 | 1306.5 | 1.009
298.15 K, x2 = 0.7936 | 1310.8 | 1.053
298.15 K, x2 = 0.8663 | 1318.5 | 1.101
298.15 K, x2 = 0.9319 | 1329 | 1.146
303.15 K, x2 = 0 | 1319.6 | 0.6188
303.15 K, x2 = 0.0696 | 1313.2 | 0.6405
303.15 K, x2 = 0.1408 | 1307.3 | 0.6646
303.15 K, x2 = 0.2098 | 1301.9 | 0.6896
303.15 K, x2 = 0.28 | 1297.1 | 0.7168
303.15 K, x2 = 0.3558 | 1292.5 | 0.7483
303.15 K, x2 = 0.4276 | 1288.9 | 0.78
303.15 K, x2 = 0.5066 | 1286 | 0.8167
303.15 K, x2 = 0.5801 | 1284.5 | 0.8532
303.15 K, x2 = 0.6548 | 1284.6 | 0.8918
303.15 K, x2 = 0.7227 | 1286.4 | 0.9287
303.15 K, x2 = 0.7936 | 1290.3 | 0.9688
303.15 K, x2 = 0.8663 | 1297.6 | 1.012
303.15 K, x2 = 0.9319 | 1307.8 | 1.052
308.15 K, x2 = 0 | 1300.2 | 0.5792
308.15 K, x2 = 0.0696 | 1294 | 0.5994
308.15 K, x2 = 0.1408 | 1287.9 | 0.6212
308.15 K, x2 = 0.2098 | 1282.6 | 0.6438
308.15 K, x2 = 0.28 | 1277.6 | 0.6685
308.15 K, x2 = 0.3558 | 1273 | 0.6966
308.15 K, x2 = 0.4276 | 1269.2 | 0.7253
308.15 K, x2 = 0.5066 | 1266.3 | 0.7589
308.15 K, x2 = 0.5801 | 1264.6 | 0.7918
308.15 K, x2 = 0.6548 | 1264.7 | 0.8274
308.15 K, x2 = 0.7227 | 1266.2 | 0.8612
308.15 K, x2 = 0.7936 | 1270 | 0.8982
308.15 K, x2 = 0.8663 | 1277 | 0.9376
308.15 K, x2 = 0.9319 | 1286.7 | 0.9752
313.15 K, x2 = 0 | 1280.4 | 0.5422
313.15 K, x2 = 0.0696 | 1274.3 | 0.5609
313.15 K, x2 = 0.1408 | 1268.3 | 0.5813
313.15 K, x2 = 0.2098 | 1262.9 | 0.6022
313.15 K, x2 = 0.28 | 1258 | 0.6248
313.15 K, x2 = 0.3558 | 1253.3 | 0.651
313.15 K, x2 = 0.4276 | 1249.6 | 0.6774
313.15 K, x2 = 0.5066 | 1246.4 | 0.7084
313.15 K, x2 = 0.5801 | 1244.7 | 0.7391
313.15 K, x2 = 0.6548 | 1244.6 | 0.7717
313.15 K, x2 = 0.7227 | 1246.1 | 0.8032
313.15 K, x2 = 0.7936 | 1249.9 | 0.8372
313.15 K, x2 = 0.8663 | 1256.5 | 0.874
313.15 K, x2 = 0.9319 | 1265.7 | 0.9088
318.15 K, x2 = 0 | 1263 | 0.5066
318.15 K, x2 = 0.0696 | 1256.9 | 0.5246
318.15 K, x2 = 0.1408 | 1250.8 | 0.5436
318.15 K, x2 = 0.2098 | 1245.3 | 0.5634
318.15 K, x2 = 0.28 | 1240.3 | 0.5846
318.15 K, x2 = 0.3558 | 1235.4 | 0.6092
318.15 K, x2 = 0.4276 | 1231.5 | 0.6342
318.15 K, x2 = 0.5066 | 1228.3 | 0.6632
318.15 K, x2 = 0.5801 | 1226.4 | 0.692
318.15 K, x2 = 0.6548 | 1226 | 0.7224
318.15 K, x2 = 0.7227 | 1227.1 | 0.7515
318.15 K, x2 = 0.7936 | 1230.5 | 0.7836
318.15 K, x2 = 0.8663 | 1236.7 | 0.8178
318.15 K, x2 = 0.9319 | 1245.3 | 0.8501
